Data: publication PMC6739813, “Structures of the Neisseria meningitides methionine‐binding protein MetQ in substrate‐free form and bound to L‐ and D‐methionine isomers” (Protein Science : A Publication of the Protein Society, 2019)

Tests used:
[1] = target: T1, MetQ (methionine-binding protein) (Neisseria meningitidis, UniProt Q9JPG4); assay: ITC; crystal structure at […] Å
T1 construct: gene gna1946

[2] = target: T2, MetQ (methionine-binding protein) (Neisseria meningitidis, UniProt Q9JPG4, N238A); assay: ITC
T2 construct: gene gna1946
T2 sequence (Q9JPG4 43-287 N238A): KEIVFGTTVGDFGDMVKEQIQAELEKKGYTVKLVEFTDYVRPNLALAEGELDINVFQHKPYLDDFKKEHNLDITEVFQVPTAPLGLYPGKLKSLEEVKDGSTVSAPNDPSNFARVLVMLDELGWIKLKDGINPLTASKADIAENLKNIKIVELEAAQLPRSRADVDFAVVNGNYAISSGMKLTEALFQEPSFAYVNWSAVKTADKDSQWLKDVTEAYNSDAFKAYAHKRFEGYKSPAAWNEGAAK

[3] = target: T1, MetQ (methionine-binding protein); assay: ITC (displacement titration with D-methionine); crystal structure at […] Å

| Compound | Kd [1] [µM] | Kd [2] [µM] | Kd [3] [µM] |
| --- | --- | --- | --- |
| CSCC[C@@H](N)C(=O)O [D-methionine] | 3.5 | 240 |  |
| CSCC[C@H](N)C(=O)O [L-methionine] |  | 78 | 0.0002 |
